What was measured:
[1] = target: T1, Melatonin receptor type 1B (Homo sapiens, UniProt P49286)
T1 sequence (P49286 whole entry): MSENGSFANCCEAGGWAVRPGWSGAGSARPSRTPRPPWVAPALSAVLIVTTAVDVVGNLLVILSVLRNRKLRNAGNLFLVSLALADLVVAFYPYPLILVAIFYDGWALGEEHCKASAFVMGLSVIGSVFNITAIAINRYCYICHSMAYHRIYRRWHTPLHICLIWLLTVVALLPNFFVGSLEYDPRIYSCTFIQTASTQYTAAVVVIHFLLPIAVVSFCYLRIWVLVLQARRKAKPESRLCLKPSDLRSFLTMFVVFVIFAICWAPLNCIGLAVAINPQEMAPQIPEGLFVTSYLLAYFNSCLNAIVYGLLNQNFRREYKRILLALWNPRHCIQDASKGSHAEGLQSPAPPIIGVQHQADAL

[2] = target: T2, Melatonin receptor type 1B (Gallus gallus, UniProt P51050)
T2 sequence (P51050 whole entry): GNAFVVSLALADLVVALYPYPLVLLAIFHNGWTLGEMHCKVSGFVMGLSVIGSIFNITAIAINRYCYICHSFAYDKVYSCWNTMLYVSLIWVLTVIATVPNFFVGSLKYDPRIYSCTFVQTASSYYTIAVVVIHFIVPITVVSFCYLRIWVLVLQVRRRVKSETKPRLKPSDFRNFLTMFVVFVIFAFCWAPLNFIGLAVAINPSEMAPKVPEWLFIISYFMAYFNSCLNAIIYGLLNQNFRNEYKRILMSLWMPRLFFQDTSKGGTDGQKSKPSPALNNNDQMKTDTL

[3] = target: T3, Melatonin receptor type 1C (Xenopus laevis, UniProt P49219)
T3 sequence (P49219 whole entry): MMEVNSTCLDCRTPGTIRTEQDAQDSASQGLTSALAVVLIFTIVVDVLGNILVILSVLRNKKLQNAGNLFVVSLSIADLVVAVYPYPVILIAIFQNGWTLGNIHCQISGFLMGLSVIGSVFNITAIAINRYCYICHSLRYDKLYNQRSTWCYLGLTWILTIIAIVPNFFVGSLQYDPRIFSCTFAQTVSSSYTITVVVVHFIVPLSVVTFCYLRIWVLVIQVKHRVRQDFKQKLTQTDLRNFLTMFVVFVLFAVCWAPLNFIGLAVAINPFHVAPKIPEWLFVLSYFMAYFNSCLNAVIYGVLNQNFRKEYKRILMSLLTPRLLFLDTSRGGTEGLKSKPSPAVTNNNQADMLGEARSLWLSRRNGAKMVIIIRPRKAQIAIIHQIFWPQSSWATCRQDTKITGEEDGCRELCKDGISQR

[4] = target: Melatonin receptor type 1A (Homo sapiens, UniProt P48039)
Sequence of Melatonin receptor type 1A (P48039 whole entry): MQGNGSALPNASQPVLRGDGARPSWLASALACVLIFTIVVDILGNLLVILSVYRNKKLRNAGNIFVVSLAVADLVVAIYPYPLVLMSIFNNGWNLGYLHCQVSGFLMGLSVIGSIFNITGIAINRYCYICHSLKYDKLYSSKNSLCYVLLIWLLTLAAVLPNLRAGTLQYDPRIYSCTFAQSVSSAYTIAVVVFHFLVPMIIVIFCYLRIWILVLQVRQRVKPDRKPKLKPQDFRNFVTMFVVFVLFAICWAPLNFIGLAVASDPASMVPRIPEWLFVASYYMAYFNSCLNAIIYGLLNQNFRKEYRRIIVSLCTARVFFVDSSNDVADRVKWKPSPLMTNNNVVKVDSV

| Ki [1] | Ki [2] | Ki [3] | Ki [4] | SMILES |
| --- | --- | --- | --- | --- |
| 324 nM | 776 nM | 1380 nM | 339 nM | CCCCCC(=O)NCCc1c(Cc2ccccc2)[nH]c2ccc(OC)cc12 [Luzindole,5-MeOT-N-hexanyl] |
| 7080 nM | 6460 nM | 5750 nM | 5500 nM | CCCCCC(=O)NCCc1c(Cc2ccccc2)[nH]c2ccccc12 [Luzindole,N-hexanoyl] |
| 22.9 nM | 1950 nM | 3160 nM | 776 nM | CCC(=O)NCCc1c(Cc2ccccc2)[nH]c2ccccc12 [Luzindole,N-propanoyl] |
| 26.9 nM | 1740 nM | 2040 nM | 513 nM | CC(=O)NCCc1c(Cc2ccccc2)[nH]c2ccccc12 [CAS_117946-91-5] |
| 9.33 nM | 933 nM | 2140 nM | 832 nM | CCCCC(=O)NCCc1c(Cc2ccccc2)[nH]c2ccccc12 [Luzindole,N-pentanoyl] |
| 1320 nM | > 10000 nM | 3800 nM | 3020 nM | CCCC(=O)NCCc1c(Cc2ccccc2)[nH]c2ccccc12 [Luzindole,N-butanoyl] |
